Laboratory results reported in patent US20150079000A1, “Labelled Quinoxaline Derivatives as Multimodal Radiopharmaceuticals and Their Precursors” (INSTITUT NATIONAL DE LA SANTET DE LA RECHERCHE MEDICALE, priority 2012, published 2015).

How the values were obtained:
[1] = Metabolism of compound [125I](1); format: in vivo, mice
Protocol: 24 primary melanoma bearing mice were intravenously injected with 2.2 MBq of [^1251](1) and sacrificed 1 h, 3 h, 6 h, 24 h, 72 h and 10 days after tracer injection. To determine the metabolic stability of [^1251](1), blood, tumour, eyes, liver, kidney and urine samples were collected at each time point […]. Faeces were collected between 0-24 h and 24-48 h. Blood was immediately diluted in 5 mL of methanol/NH4OH 99.8:0.2 and centrifuged for 5 min at 3,000 rpm. Tumour, eyes, liver, kidneys and faeces were suspended in 5 mL of methanol/NH4OH 99.8:0.2, homogenized using GentleMACS™ dissociator (Miltenyi Biotec, Bergisch Gladbach, Germany) and centrifuged for 5 min at 3,000 rpm (repeated 2 times). Urines were analysed without any treatment. The extraction efficiency was determined by measuring the radioactivity of supernatants and precipitates. Supernatants were passed through a 0.22 μm Millipore filter and then concentrated to a volume between 200 and 500 μL before injection (duplicate) onto the analytical HPLC(C18 column; solvent A: H2O (0.2% NH4OH); solvent B: MeOH (0.2% NH4OH); Gradient elution: 0-5 min: 90 to 70% of A (Q=0.5 mL·min^−1); 5-30 min: 70 to 20% of A (Q=0.9 mL·min^−1); 30-32 min: 10% of A (Q=0.9 mL·min^−1)).

[2] = tested on: B16 murine melanoma tumours; experiment: Ex vivo biodistribution study for compound [125I](1); format: in vivo, C57BL/6J mice
Protocol: Twenty four B16BL6 primary melanoma bearing mice were intravenously injected with 2.2 MBq of [^1251]1 and sacrificed 1 h, 3 h, 6 h, 24 h, 72 h and 10 days after tracer injection (n=4/time point). Tumours and major organs and tissues were promptly excised, harvested, weighted and their radioactivity counted using a calibrated γ-counter with a […] energy window. After radioactive decay correction, results were expressed as percentage of injected dose per gram of tissue (% ID/g).

For `CCN(CCNC(=O)c1cnc2cc([125I])ccc2n1)CCOCCOCCOCCF` [[^125I](1)], the “% of radioactivity” value ([1]; Blood, 1 h after [125I](1) injection) was 2.0 ± 2.8%, the “% of radioactivity” value ([1]; Blood, 3 h after [125I](1) injection) was 0.0 ± 0.0% and the “% of radioactivity” value ([1]; Blood, 6 h after [125I](1) injection) was 3.5 ± 4.9%. For the same molecule, the “% of radioactivity” value ([1]; Eyes, 1 h after [125I](1) injection) was 90.5 ± 0.7%, the “% of radioactivity” value ([1]; Eyes, 3 h after [125I](1) injection) was 94.5 ± 2.1% and the “% of radioactivity” value ([1]; Eyes, 6 h after [125I](1) injection) was 96.0 ± 5.7%. For the same molecule, the “% of radioactivity” value ([1]; Eyes, 24 h after [125I](1) injection) was 90.0 ± 2.8%, the “% of radioactivity” value ([1]; Eyes, 72 h after [125I](1) injection) was 96.5 ± 4.9% and the “% of radioactivity” value ([1]; Eyes, 10 d after [125I](1) injection) was 100.0 ± 0.0%. For the same molecule, the “% of radioactivity” value ([1]; Feces, (grid: 3 h; faeces collected 24-48 h)) was 2.5 ± 0.7%, the “% of radioactivity” value ([1]; Feces, first value column (grid: 1 h; faeces collected 0-24 h)) was 5.0 ± 0.0% and the “% of radioactivity” value ([1]; Kidney, 1 h after [125I](1) injection) was 12.5 ± 2.1%. The “% of radioactivity” value ([1]; Kidney, 3 h after [125I](1) injection) was 6.1 ± 2.9%, the “% of radioactivity” value ([1]; Kidney, 6 h after [125I](1) injection) was 0.0 ± 0.0% and the “% of radioactivity” value ([1]; Liver, 1 h after [125I](1) injection) was 27.5 ± 0.7%. The “% of radioactivity” value ([1]; Liver, 3 h after [125I](1) injection) was 24.0 ± 4.2%, the “% of radioactivity” value ([1]; Liver, 6 h after [125I](1) injection) was 8.5 ± 0.7% and the “% of radioactivity” value ([1]; Liver, 24 h after [125I](1) injection) was 0.0 ± 0.0%. For the same molecule, the “% of radioactivity” value ([1]; Tumour, 1 h after [125I](1) injection) was 87.0 ± 1.4%, the “% of radioactivity” value ([1]; Tumour, 3 h after [125I](1) injection) was 81.0 ± 1.4% and the “% of radioactivity” value ([1]; Tumour, 6 h after [125I](1) injection) was 77.0 ± 0.0%. For the same molecule, the “% of radioactivity” value ([1]; Tumour, 24 h after [125I](1) injection) was 92.5 ± 9.2%, the “% of radioactivity” value ([1]; Tumour, 72 h after [125I](1) injection) was 91.5 ± 3.5% and the “% of radioactivity” value ([1]; Tumour, 10 d after [125I](1) injection) was 100.0 ± 0.0%. The “% of radioactivity” value ([1]; Urine, 1 h after [125I](1) injection) was 12.6 ± 0.5%, the “% of radioactivity” value ([1]; Urine, 3 h after [125I](1) injection) was 0.0 ± 0.0% and the “% of radioactivity” value ([1]; Urine, 6 h after [125I](1) injection) was 0.0 ± 0.0%. For the same molecule, the “% of radioactivity” value ([1]; Urine, 24 h after [125I](1) injection) was 0.0 ± 0.0%, the “% of radioactivity” value ([1]; Urine, 72 h after [125I](1) injection) was 0.0 ± 0.0% and the “% ID/g Adipose” value ([2]; 1 h p.i.) was 0.61 ± 0.01 % ID/g. The “% ID/g Blood” value ([2]; 1 h p.i.) was 0.97 ± 0.07 % ID/g, the “% ID/g Bones” value ([2]; 1 h p.i.) was 0.79 ± 0.09 % ID/g and the “% ID/g Brain” value ([2]; 1 h p.i.) was 0.27 ± 0.03 % ID/g. The “% ID/g Ceacum” value ([2]; 1 h p.i.) was 4.97 ± 3.01 % ID/g, the “% ID/g Colon” value ([2]; 1 h p.i.) was 4.51 ± 4.40 % ID/g and the “% ID/g Heart” value ([2]; 1 h p.i.) was 1.17 ± 0.07 % ID/g. For the same molecule, the “% ID/g Kidney” value ([2]; 1 h p.i.) was 4.75 ± 0.71 % ID/g, the “% ID/g Liver” value ([2]; 1 h p.i.) was 6.33 ± 1.69 % ID/g and the “% ID/g Lung” value ([2]; 1 h p.i.) was 3.12 ± 0.42 % ID/g. For the same molecule, the “% ID/g Muscle” value ([2]; 1 h p.i.) was 0.55 ± 0.16 % ID/g, the “% ID/g Pancreas” value ([2]; 1 h p.i.) was 2.96 ± 0.15 % ID/g and the “% ID/g Skin” value ([2]; 1 h p.i.) was 1.04 ± 0.06 % ID/g. The “% ID/g Small intestine” value ([2]; 1 h p.i.) was 16.68 ± 10.70 % ID/g, the “% ID/g Spleen” value ([2]; 1 h p.i.) was 2.14 ± 0.20 % ID/g and the “% ID/g Stomach” value ([2]; 1 h p.i.) was 9.2 ± 1.49 % ID/g. The “% ID/g Testes” value ([2]; 1 h p.i.) was 0.68 ± 0.19 % ID/g, the “% ID/g Adipose” value ([2]; 3 h p.i.) was 0.36 ± 0.05 % ID/g and the “% ID/g Blood” value ([2]; 3 h p.i.) was 0.82 ± 0.05 % ID/g. The “% ID/g Bones” value ([2]; 3 h p.i.) was 0.48 ± 0.03 % ID/g, the “% ID/g Brain” value ([2]; 3 h p.i.) was 0.15 ± 0.01 % ID/g and the “% ID/g Ceacum” value ([2]; 3 h p.i.) was 25.73 ± 7.88 % ID/g. The “% ID/g Colon” value ([2]; 3 h p.i.) was 21.19 ± 18.02 % ID/g, the “% ID/g Heart” value ([2]; 3 h p.i.) was 0.77 ± 0.05 % ID/g and the “% ID/g Kidney” value ([2]; 3 h p.i.) was 3.14 ± 1.27 % ID/g. For the same molecule, the “% ID/g Liver” value ([2]; 3 h p.i.) was 3.37 ± 0.14 % ID/g, the “% ID/g Lung” value ([2]; 3 h p.i.) was 2.14 ± 0.27 % ID/g and the “% ID/g Muscle” value ([2]; 3 h p.i.) was 0.30 ± 0.04 % ID/g. The “% ID/g Pancreas” value ([2]; 3 h p.i.) was 1.48 ± 0.07 % ID/g, the “% ID/g Skin” value ([2]; 3 h p.i.) was 1.34 ± 0.72 % ID/g and the “% ID/g Small intestine” value ([2]; 3 h p.i.) was 4.16 ± 0.70 % ID/g. The “% ID/g Spleen” value ([2]; 3 h p.i.) was 2.37 ± 2.58 % ID/g, the “% ID/g Stomach” value ([2]; 3 h p.i.) was 4.53 ± 0.94 % ID/g and the “% ID/g Testes” value ([2]; 3 h p.i.) was 0.54 ± 0.03 % ID/g. The “% ID/g Adipose” value ([2]; 6 h p.i.) was 0.19 ± 0.06 % ID/g.
